Laboratory results reported in paper PMC10796410 (Cancer Chemotherapy and Pharmacology, 2023).
Several values for one entry are separate records, joined by “and”; a condition that tells them apart may be missing. Equal entries are not always repeated. Where two headings read alike, the source gives them in different places.

Tests used:
[1] = tested on: epithelial ovarian cancer cell lines; details: drugs given separately or co-administered; cited from earlier work
[2] = Plasma pharmacokinetics of metformin in rats after a single oral dose, alone or with olaparib (HPLC-UV, non-compartmental); assay type: in vivo, Wistar rats; details: for Cmax / k el: po; for Cmax / k el / Cl/F / ka / t0.5: rat plasma, n = 8, mean ± SD
Protocol: Adult male Wistar rats (weight 380–530 g) were used in the study. The animals were maintained under standard breeding conditions with a 12/12 h light–dark cycle (lights on at 06.00, lights off at 18.00) at constant room temperature (23 ± 2 °C), relative humidity of 55 ± 10% and given ad libitum access to food and water. The animals were allowed to acclimatize for a week before the beginning of the experiments. The rats were divided into three groups. […] The solution for oral metformin administration was prepared in saline at a single dose of 100 mg/kg [15]. Drugs were orally administered to rats by gavage between 7:00 a.m. and 8:00 a.m. Before administration (0 h) and at different time intervals after the administration, i.e., 0.085, 0.5, 1, 2, 4, 6, 8, 10, and 24 h [16], blood was collected from the tail vein of each rat into 1.5-ml heparinized Eppendorf (EP) tubes. The blood samples were centrifuged at 5000 rpm for 10 min, and the plasma was transferred to new centrifuge tubes and then stored at – 80 °C.
High-performance liquid chromatography (HPLC) with ultraviolet (UV) detection (HPLC Waters 2695 Separations Module with autosampler, Waters 2487 Dual Absorbance Detector) [17] after a liquid–liquid extraction with a mixture of 1-butanol:n-heptane (50:50, v/v) was applied to measure the concentrations of metformin in the rats’ plasma. An analytical Symmetry® C8 column (250 × 4.6 mm, 5.0 μm; Waters Corporation, Milford, MA, USA) and a mobile phase consisting of 0.1 M ammonium formate solution, pH 6.3 with an isocratic flow rate of 1.0 ml/min were used. The volume of each injection was 20 µl, and the retention times for metformin and internal standard (acetaminophen) were 3.5 and 11.2 min, respectively.
The maximum plasma concentration (Cmax) and the time to reach the Cmax (tmax) were obtained directly from the measured values. All of the above-mentioned parameters underwent statistical analysis.

[3] = male, Wistar, rat, plasma, 100 mg/kg, IIMET: metformin 100 mg/kg b.w. oral single dose alone
[4] = male, Wistar, rat, plasma, 100 mg/kg, IMET+OLA: metformin 100 mg/kg b.w. + olaparib 100 mg/kg b.w. oral single dose
[5] = metformin, rats, with olaparib / alone
[6] = IIMET: metformin 100 mg/kg b.w. oral single dose alone
[7] = IMET+OLA: metformin 100 mg/kg b.w. + olaparib 100 mg/kg b.w. oral single dose
[8] = rats, co-administered with olaparib vs. metformin alone
[9] = rats, concomitant olaparib and metformin

- concentration at 0.083 h ([2]; male, Wistar, rat, plasma, oral, 100 mg/kg, t 0.083 h, IIMET (metformin alone), group mean, read-out: Cmet, S (group mean)): 146 ng/mL
- concentration at 1 h ([2]; male, Wistar, rat, plasma, oral, 100 mg/kg, t 1 h, IIMET (metformin alone), group mean, read-out: Cmet, S (group mean)): 397 ng/mL
- concentration at 2 h ([2]; male, Wistar, rat, plasma, oral, 100 mg/kg, t 2 h, IIMET (metformin alone), group mean, read-out: Cmet, S (group mean)): 285 ng/mL
- concentration at 6 h ([2]; male, Wistar, rat, plasma, oral, 100 mg/kg, t 6 h, IIMET (metformin alone), group mean, read-out: Cmet, S (group mean)): 156 ng/mL
- concentration at 8 h ([2]; male, Wistar, rat, plasma, oral, 100 mg/kg, t 8 h, IIMET (metformin alone), group mean, read-out: Cmet, S (group mean)): 163 ng/mL
- concentration at 10 h ([2]; male, Wistar, rat, plasma, oral, 100 mg/kg, t 10 h, IIMET (metformin alone), group mean, read-out: Cmet, S (group mean)): 133 ng/mL
- concentration at 24 h ([2]; male, Wistar, rat, plasma, oral, 100 mg/kg, t 24 h, IIMET (metformin alone), group mean, read-out: Cmet, S (group mean)): 112 ng/mL
- concentration at 0.083 h ([2]; male, Wistar, rat, plasma, oral, t 0.083 h, IMET+OLA (metformin and olaparib), group mean, read-out: Cmet, S (group mean)): 140 ng/mL
- concentration at 0.5 h ([2]; male, Wistar, rat, plasma, oral, t 0.5 h, IMET+OLA (metformin and olaparib), group mean, read-out: Cmet, S (group mean)): 590 ng/mL
- concentration at 1 h ([2]; male, Wistar, rat, plasma, oral, t 1 h, IMET+OLA (metformin and olaparib), group mean, read-out: Cmet, S (group mean)): 968 ng/mL
- concentration at 2 h ([2]; male, Wistar, rat, plasma, oral, t 2 h, IMET+OLA (metformin and olaparib), group mean, read-out: Cmet, S (group mean)): 858 ng/mL
- concentration at 4 h ([2]; male, Wistar, rat, plasma, oral, t 4 h, IMET+OLA (metformin and olaparib), group mean, read-out: Cmet, S (group mean)): 734 ng/mL
- concentration at 6 h ([2]; male, Wistar, rat, plasma, oral, t 6 h, IMET+OLA (metformin and olaparib), group mean, read-out: Cmet, S (group mean)): 626 ng/mL
- concentration at 10 h ([2]; male, Wistar, rat, plasma, oral, t 10 h, IMET+OLA (metformin and olaparib), group mean, read-out: Cmet, S (group mean)): 334 ng/mL
- concentration at 24 h ([2]; male, Wistar, rat, plasma, oral, t 24 h, IMET+OLA (metformin and olaparib), group mean, read-out: Cmet, S (group mean)): 182 ng/mL
- Cmax [2, 3]: 450 ± 290 ng/mL
- k el [2, 3]: 8.89e-06 s⁻¹
- Cmax [2, 4]: 1250 ± 800 ng/mL
- k el [2, 4]: 1.5e-05 s⁻¹
- IMET+OLA/IIMET ratio for AUC0-t [2, 5]: 2.59
- IMET+OLA/IIMET ratio for AUC0→∞ [2, 5]: 1.74
- IMET+OLA/IIMET ratio for Cmax [2, 5]: 2.78
- ka [2, 6]: 0.41 ± 0.25 (62.4) h^−1
- t0.5 [2, 6]: 26.54 ± 14.52 (54.7) h
- ka [2, 7]: 0.59 ± 0.17 (29.7) h^−1
- t0.5 [2, 7]: 14.95 ± 6.04 (40.4) h
- decrease of metformin Cl/F in the presence of olaparib [2, 8]: 43.4%
- decrease of metformin Vd/F in the presence of olaparib [2, 8]: 65.1%
- increase of metformin AUC0-t when co-administered with olaparib [2, 8]: 159.8%
- increase of metformin AUC0-∞ when co-administered with olaparib [2, 8]: 74.1%
- increase of metformin Cmax in the presence of olaparib [2, 8]: 177.8%
- increase of metformin AUC on concomitant olaparib [2, 9]: 2.6 times
- increase of metformin Cmax on concomitant olaparib [2, 9]: 2.8 times
Structure (SMILES): CN(C)C(=N)N=C(N)N [metformin, Metformin]
- percentage of late apoptotic cells [1]: 8.2%
- Cl/F [2, 6]: 6.31 ± 1.48 l/h and 6.31 ± 1.48 (23.5) l/h
- Cl/F [2, 7]: 3.57 ± 1.26 l/h and 3.57 ± 1.26 (35.34) l/h
- Cmet ([2]; t 0.083 h, IIMET (metformin alone), individual rats 17-24): 0.139 µg/mL and 0.07 µg/mL and 0.274 µg/mL and 0.12 µg/mL and 0.149 µg/mL and 0.135 µg/mL and 0.136 µg/mL and 0.145 µg/mL
- Cmet ([2]; t 0.5 h, IIMET (metformin alone), individual rats 17-24): 0.153 µg/mL and 0.15 µg/mL and 0.313 µg/mL and 0.434 µg/mL and 0.58 µg/mL and 0.179 µg/mL and 0.143 µg/mL and 0.118 µg/mL
- Cmet ([2]; t 0.5 h, IMET+OLA (metformin and olaparib), individual rats 9-16): 0.305 µg/mL and 0.586 µg/mL and 0.526 µg/mL and 1.222 µg/mL and 0.663 µg/mL and 0.324 µg/mL and 0.506 µg/mL
- Cmet ([2]; t 1 h, IIMET (metformin alone), individual rats 17-24): 0.174 µg/mL and 0.18 µg/mL and 1.014 µg/mL and 0.544 µg/mL and 0.499 µg/mL and 0.32 µg/mL and 0.159 µg/mL and 0.287 µg/mL
- Cmet ([2]; t 1 h, IMET+OLA (metformin and olaparib), individual rats 9-16): 0.543 µg/mL and 0.726 µg/mL and 0.856 µg/mL and 1.358 µg/mL and 0.97 µg/mL and 2.359 µg/mL and 0.185 µg/mL and 0.747 µg/mL
- Cmet ([2]; t 2 h, IIMET (metformin alone), individual rats 17-24): 0.23 µg/mL and 0.17 µg/mL and 0.418 µg/mL and 0.681 µg/mL and 0.209 µg/mL and 0.126 µg/mL and 0.165 µg/mL and 0.28 µg/mL
- Cmet ([2]; t 2 h, IMET+OLA (metformin and olaparib), individual rats 9-16): 0.528 µg/mL and 0.55 µg/mL and 1.159 µg/mL and 2.443 µg/mL and 1.095 µg/mL and 0.402 µg/mL and 0.242 µg/mL and 0.446 µg/mL
- Cmet ([2]; t 4 h, IIMET (metformin alone), individual rats 17-24): 0.113 µg/mL and 0.13 µg/mL and 0.27 µg/mL and 0.646 µg/mL and 0.162 µg/mL
- Cmet ([2]; t 4 h, IMET+OLA (metformin and olaparib), individual rats 9-16): 0.578 µg/mL and 0.585 µg/mL and 1.642 µg/mL and 1.111 µg/mL and 0.694 µg/mL and 0.502 µg/mL and 0.361 µg/mL and 0.396 µg/mL
- Cmet ([2]; t 6 h, IMET+OLA (metformin and olaparib), individual rats 9-16): 0.469 µg/mL and 0.284 µg/mL and 1.584 µg/mL and 1.082 µg/mL and 0.494 µg/mL and 0.321 µg/mL and 0.41 µg/mL and 0.368 µg/mL
- Cmet ([2]; t 8 h, IMET+OLA (metformin and olaparib), individual rats 9-16): 0.57 µg/mL and 0.234 µg/mL and 1.165 µg/mL and 0.793 µg/mL and 0.485 µg/mL and 0.275 µg/mL and 0.247 µg/mL and 0.287 µg/mL
- Cmet ([2]; t 10 h, IMET+OLA (metformin and olaparib), individual rats 9-16): 0.281 ug/ml and 0.155 ug/ml and 0.738 ug/ml and 0.33 ug/ml and 0.444 ug/ml and 0.268 ug/ml (2×) and 0.186 ug/ml
- Cmet ([2]; t 24 h, IMET+OLA (metformin and olaparib), individual rats 9-16): 0.133 µg/mL and 0.13 µg/mL and 0.334 µg/mL and 0.18 µg/mL and 0.236 µg/mL and 0.141 µg/mL and 0.117 µg/mL and 0.187 µg/mL
